According to patent publication US10385103B2, “Cell-permeable (ICP)-SOCS3 recombinant protein and uses thereof” (CELLIVERY THERAPEUTICS, INC., priority 2014, dated 2019):
“Also recorded” adds a separate entry of the source.

Tests used:
[1] = tested on: HCCs (Hep3B, HepG2, Huh7 and SK-HEP-1); assay: Inhibition of cell cycle progression (PI staining, flow cytometry); assay type: cell-based, human; details: reference drugs
Procedure: To further determine the effect of iCP-SOCS3 on the tumorigenicity of hepatocellular carcinoma cells, we subsequently investigated whether iCP-SOCS3 regulates cell cycle progression in HCCs (Hep3B, HepG2, Huh7 and SK-HEP-1).
HCCs and normal cells were treated with 10 uM protein (Non-CP-SOCS3 (HS3B) and iCP-SOSC3 (HM165S3B)) for 8 hrs. After the treatment, cells were washed twice with cold PBS and re-suspended in 1 ml cold PBS, fixed in cold 70% ethanol, washed with cold PBS twice and re-suspended in PI master mix (PI 10 ug/ml (SIGMA, USA), 50 ug/ml RNase A (Invitrogen, USA) in staining buffer) at a final cell density of 2×10^5 cell/ml. The cell mixtures were incubated 30 min in the dark at 4° C. Flow cytometric analysis was immediately performed using a guava easyCyte™ 8 Instrument (Merck Millipore, Darmstadt, Germany).

HepG2 cells [2] = assay: Induction of apoptosis, Annexin V/7-AAD staining; assay type: cell-based, human
Procedure: (§1) AGS cells (gastric carcinoma cell line) (American Type Culture Collection; ATCC) were seeded in a 12-well plate at a density of 1×10^5 cells/well, and then treated with 10 uM of aMTD/SD-fused SOCS3 for 14 hours. Cancer cell death was analyzed by Annexin V analysis. Annexin V/7-Aminoactinomycin D (7-AAD) staining was performed using flow cytometry according to the manufacturer's guidelines (BD Pharmingen, San Diego, Calif., USA). Briefly, cells were washed three times with ice-cold PBS. The cells were then resuspended in 100 μl of binding buffer and incubated with 1 μl of 7-AAD and 1 μl of annexin V-PE for 30 min in the dark at 37° C. Flow cytometric analysis was immediately performed using a guava easyCyte™ 8 Instrument (Merck Millipore, Darmstadt, Germany).
Annexin V/7-Aminoactinomycin D (7-AAD) staining was performed using flow cytometry according to the manufacturer's guidelines (BD Pharmingen, San Diego, Calif., USA). Briefly, 1×10^6 cells were washed three times with ice-cold PBS. The cells were then resuspended in 100 μl of binding buffer and incubated with 1 μl of 7-AAD and 1 μl of […] for 30 min in the dark at 4° C. Flow cytometric analysis was immediately performed using a guava easyCyte™ 8 Instrument (Merck Millipore, Darmstadt, Germany). In this regard, Cisplatin® (IC50: 30 μM) was used as a reference drug.
(§2) The effect of inducing apoptosis of Chang liver cells was measured in the same manner as in Example 11-2, except that as target cell lines, normal Chang liver cells and hepatocellular carcinoma cell lines, Hep3B, HepG2, Huh7, and SK-HEP-1 were used, and as a reference drug, 5-FU® (IC50: 40 μM) was used.

[3] = read-out: IC50 (stated for reference drug); cited from earlier work
Hep3B cells = assay: Induction of apoptosis, Annexin V/7-AAD staining; assay type: cell-based, human; details: example 20-2
Procedure: as §1, §2

SK-Hep-1 cells = assay: Induction of apoptosis, Annexin V/7-AAD staining; assay type: cell-based, human; details: example 20-2
Procedure: as §1, §2

Huh7 cells [4] = assay: Induction of apoptosis, Annexin V/7-AAD staining; assay type: cell-based, human; details: example 20-2
Procedure: as §1, §2

Huh7 cells [5] = assay: Induction of apoptosis, TUNEL assay; assay type: cell-based, human; details: 10 μM, 24 hr, 2% fetal bovine serum
Procedure: Apoptotic cells were analyzed using terminal dUTP nick-end labeling (TUNEL) assay with In Situ Cell Death Detection kit TMR red (Roche, 4056 Basel, Switzerland). Cells were treated for 24 hr with 10 μM HS3B or HM165S3B proteins with 2% fetal bovine serum and apoptotic cells were visualized by TUNEL staining. Treated cells were washed with cold PBS two times, fixed in 4% paraformaldehyde (PFA, Junsei, Tokyo, Japan) for 1 hr at room temperature, and incubated in 0.1% Triton X-100 for 2 min on the ice. Cells were washed with cold PBS twice, and treated TUNEL reaction mixture for 1 hr at 37° C. in dark, washed cold PBS three times and observed by fluorescence microscopy (Nikon, Tokyo, Japan). Cisplatin® (IC50: 30 μM) was used for reference drug.

HepG2 tumor = assay: Anti-tumor activity in cell-derived xenograft model; details: iCP-SOCS3 IV 50 mg/kg every day; Cisplatin IP 4 mg/kg twice a week; 3 weeks
Procedure: Female Balb/c^nu/nu mice (5-week-old, Doo-Yeol Biotech Co. Ltd. Korea) were subcutaneously implanted with Hep3B2.1-7 tumor block (1 mm^3) into the left back side of the mouse. […] Tumor size was monitored by measuring the longest (length) and shortest dimensions (width) once a day with a dial caliper, and tumor volume was calculated as width2×length×0.5.
Then, tumor volumes were examined. […] Then, tumor volumes were examined.

[6] = Solubility/yield of SOCS3 recombinant proteins expressed and purified from E. coli; assay type: physicochemical; details: expressed and purified in E. coli
Procedure: Thereafter, the recombinant protein gene-introduced E. coli was inoculated in 7 ml of LB medium, and then incubated at 37° C. overnight. The E. coli was inoculated in 700 ml of LB medium and incubated at 37° C. until OD600 reached 0.6. To this culture medium, 0.6 mM of isopropyl-β-D-thiogalactoside (IPTG, Gen Depot, USA) was added as a protein expression inducer, followed by further incubation at 37° C. for 3 hours. This culture medium was centrifuged at 4° C. and 8,000 rpm for 10 minutes and a supernatant was discarded to recover a cell pellet. The cell pellet thus recovered was suspended in a lysis buffer (100 mM NaH2PO4, 10 mM Tris-HCl, 8 M Urea, pH 8.0), and cells were disrupted by sonication (on/off time: 30 sec/30 sec, on time 2 hours, amplify 40%), and centrifuged at 15,000 rpm for 30 min to obtain a soluble fraction and an insoluble fraction.
After purification, the proteins were put in a SnakeSkin Dialysis Tubing bag (pore size: 10000 mw, Thermo scientific, USA) and then they were dialyzed by physiological buffer (DMEM). The strain lysate where protein expression was not induced, the strain lysate where protein expression was induced by addition of IPTG, and purified proteins were loaded on SDS-PAGE to analyze protein expression characteristics and expression levels (FIGS. 19 and 20).
Solubility of aMTD/SD-fused SOCS3 proteins was scored on a 5 point scale compared with that of SOCS3 proteins lacking the solubilization domain.

NIH3T3 cells [7] = assay: Intracellular delivery and localization of FITC-labeled SOCS3 recombinant proteins (confocal microscopy); assay type: cell-based, mouse; details: 10 μM FITC-labeled SOCS3 protein, 1 hour, 37° C.
Procedure: (§3) To examine cell-permeability of SOCS3 recombinant protein, SOCS3 recombinant proteins were conjugated to 5/6-fluorescein isothiocyanate (FITC). RAW 264.7 (KCLB, Seoul, South Korea) (FIG. 20) or NIH3T3 cells (KCLB, Seoul, South Korea) (FIG. 21) were treated with 10 μM FITC-labeled SOCS3 recombinant proteins and cultivated for 1 hr at 37° C.
(§4) After cultivation, the cells were washed three times with ice-cold PBS (Phosphate-buffered saline, Hyclone, USA) and treated with proteinase K (10 μg/mL, SIGMA, USA) to remove surface-bound proteins, and internalized proteins were measured by flow cytometry (FlowJo cytometric analysis software, Guava, Millipore, Darmstadt, Germany). Untreated cells (gray) and equimolar concentration of unconjugated FITC (FITC only, green)-treated cells were served as control (FIG. 20). Each of NIH3T3 cells was incubated for 1 hour at 37° C. with 10 μM FITC-labeled SOCS3 protein. For nuclear staining, a mixture of […] Mounting Medium (Vector laboratories, Burlingame, Calif.) and DAPI (4′,6-diamidino-2-phenylindole) was added to NIH3T3 cells, and visualized using a confocal laser microscope (LSM700, Zeiss, Germany) (FIG. 21).

IL-6 = assay: LPS/IFN-γ-induced cytokine secretion in peritoneal macrophages (cytometric bead array), IL-6; assay type: cell-based, C3H/HeJ mice; details: 10 μM protein; IFN-γ and LPS
Procedure: (§5) Peritoneal macrophages were obtained from C3H/HeJ mice (Doo-Yeol Biotech Co. Ltd. Korea) Peritoneal macrophages were incubated with 10 μM SOCS3 recombinant proteins (1:HS3, 2:HM165S3, 3:HM165S3A and 4:HM165S3B, respectively) for 1 hr at 37° C. and then stimulated them with LPS (Lipopolysaccharide)(500 ng/ml) and/or IFN-γ (100 U/ml) without removing iCP-SOCS3 proteins for 3, 6, or 9 hrs. The culture media were collected, and the extracellular levels of cytokine (TNF-α, IL-6) were measured by a cytometric bead array (BD Pharmingen, San Diego, Calif., USA) according to the manufacturer's instructions.

HepG2 cells [8] = assay: Cell-permeability of FITC-labeled SOCS3 recombinant proteins in hepatocellular carcinoma cells (flow cytometry); assay type: cell-based, human; details: 10 μM FITC-labeled protein, 1 hr, 37° C.
Procedure: HepG2 cells (ATCC, Manassas, Va., USA) were seeded in a 12 well plate, grown to 90% confluence. Cells were treated with 10 μM FITC-labeled iCP-SOCS3 recombinant proteins and cultivated for 1 hr at 37° C.
After cultivation, the cells were treated with proteinase K (10 ug/mL, SIGMA, USA) and washed three times with ice-cold PBS (Phosphate-buffered saline, Hyclone, USA) to remove surface-bound proteins, and internalized proteins were measured by flow cytometry (FlowJo cytometric analysis software, Guava, Millipore, Darmstadt, Germany). Untreated cells (gray) and equimolar concentration of unconjugated FITC (FITC only, green)-treated cells were served as control (FIG. 57).

STAT1 = assay: Inhibition of IFN-γ-induced STAT phosphorylation in PANC-1 cells (western blot), STAT1; assay type: cell-based; details: PANC-1, 10 ng/ml IFN-γ 15 min, 10 μM protein 2 hrs
Procedure: (§6) PANC-1 Cells (KCLB, Seoul, South Korea) were treated with 10 ng/ml IFN-γ (R&D systems, Abingdon, UK) for 15 min and treated with either DMEM (vehicle) or 10 μM aMTD/SD-fused SOCS3 recombinant proteins for 2 hrs. The cells were lysed in RIPA lysis buffer (Biosesang, Seongnam, Korea) containing proteinase inhibitor cocktail (Roche, Indianapolis, Ind., USA), incubated for 15 min at 4° C., and centrifuged at 13,000 rpm for 10 min at 4° C. Equal amounts of lysates were separated on 10% SDS-PAGE gels and transferred to a nitrocellulose membrane. The membranes were blocked using 5% skim milk in TBST and for western blot analysis incubated with the following antibodies: anti-phospho-STAT1 (Cell Signaling Technology, USA) and anti-phospho-STAT3 (Cell Signaling Technology, USA), then HRP conjugated anti-rabbit secondary antibody (Santacruz).

TNF-α = assay: LPS/IFN-γ-induced cytokine secretion in peritoneal macrophages (cytometric bead array), TNF-α; assay type: cell-based, C3H/HeJ mice; details: 10 μM protein; IFN-γ and LPS
Procedure: as §5

STAT3 = assay: Inhibition of IFN-γ-induced STAT phosphorylation in PANC-1 cells (western blot), STAT3; assay type: cell-based; details: PANC-1, 10 ng/ml IFN-γ 15 min, 10 μM protein 2 hrs
Procedure: as §6
as §6, with “(vehicle) or 1, 5, 10 μM” for “(vehicle) or 10 μM”, “following antibodies: anti-phospho-STAT3 (Cell” for “following antibodies: anti-phospho-STAT1 (Cell Signaling Technology, USA) and anti-phospho-STAT3 (Cell”

RAW 264.7 cells [9] = assay: Cell-permeability of FITC-labeled SOCS3 recombinant proteins (flow cytometry); assay type: cell-based; details: 10 μM FITC-labeled protein, 1 hr, 37° C.
Procedure: as §3
In this regard, RAW 264.7 cells were cultured in a DMEM medium containing 10% fetal bovine serum (FBS, Hyclone, USA) and […] of 1% penicillin/streptomycin (Hyclone, USA).
as §4

RAW 264.7 cells [10] = assay: Quantitative cell-permeability of FITC-labeled aMTD- or rPeptide-fused CRA recombinant proteins (flow cytometry); assay type: cell-based; details: RAW 264.7 cells, 10 μM FITC-labeled recombinant protein, 1 hour
How it was run: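 RAW 264.7 cells were exposed to 10 μM FITC-labeled recombinant proteins, consisting of a non-functional cargo fused to aMTD or rPeptide sequences, for 1 hour at 37° C. Cells were washed three times in cold PBS and treated with 0.25% tripsin/EDTA for 20 minutes at 37° C. to strip surface-bound protein, then uptake was measured by flow cytometry.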

NIH3T3 cells [11] = assay: Intracellular delivery and localization of aMTD-/rPeptide-fused CRA recombinant proteins (confocal laser scanning microscopy); assay type: cell-based, mouse; details: 10 μM FITC-labeled protein, 1 hour, 37
Procedure: NIH3T3 cells were exposed to 10 μM of FITC-labeled protein for 1 hour at 37, and nuclei were counterstained with DAPI. Then, cells were examined by confocal laser scanning microscopy (FIG. 7). […] The intracellular localization of the fluorescent signal was determined by confocal laser scanning microscopy (LSM700, Zeiss, Germany; FIGS. 7 and 8).

For `O=c1[nH]cc(F)c(=O)[nH]1` [5-FU, reference compound], the “amount of subG1” value [1] is given as “hardly increased the amount of subG1”, the “induction of apoptosis (Annexin V), HepG2” value (HepG2 cells [2]; example 20-2) is given as “hardly induced apoptosis” and the IC50 [3] is given as 40 µM. For the same compound, the “induction of apoptosis (Annexin V), Hep3B” value (Hep3B cells) was “hardly induced apoptosis”, the “induction of apoptosis (Annexin V), SK-HEP-1” value (SK-Hep-1 cells) was “hardly induced apoptosis” and the “induction of apoptosis (Annexin V), Huh7” value (Huh7 cells [4]) was “hardly induced apoptosis”.
In the case of `N.N.[Cl][Pt][Cl]` [Cisplatin, reference compound], the “amount of subG1” value [1] is reported as “hardly increased the amount of subG1”, the “induction of apoptosis (Annexin V), HepG2, dose dependence” value (HepG2 cells [2]; example 20-1) is reported as “hardly induced apoptosis” and the “induction of apoptosis (TUNEL), Huh7” value (Huh7 cells [5]) is reported as “hardly induced apoptosis”. The IC50 [3] was 30 µM and the “body weight / adverse effects” value (HepG2 tumor) was “remarkable weight loss”.
In the case of “HS3: His-tagged SOCS3 recombinant protein lacking an aMTD and a SD [reference compound]”, the “solubility (tendency to precipitate)” value [6] is reported as “largely insoluble; also recorded: less soluble”, the “intracellular delivery and localization” value (NIH3T3 cells [7]) is reported as “did not appear to enter cells” and the “effect on IL-6 secretion” value (IL-6) is reported as “unchanged”. For the same compound, the “transduction into HepG2 cells” value (HepG2 cells [8]) was “did not appear to enter cells”, the “IFN-γ-induced phosphorylation of STAT1” value (STAT1) was “STAT phosphorylation was readily detected” and the “effect on TNF-α secretion” value (TNF-α) was “unchanged”. For the same compound, the “IFN-γ-induced phosphorylation of STAT3” value (STAT3) was “STAT phosphorylation was readily detected” and the “cell-permeability (protein uptake)” value (RAW 264.7 cells [9]) was “did not appear to enter cells”.
With YYNQSTCGGQCY [rP38, reference compound] the “Relative Ratio to aMTD AVE” value (RAW 264.7 cells [10]) was 0.3±0.04 fold and the “intracellular delivery and localization (internalized fluorescence signal)” value (NIH3T3 cells [11]) was “did not show internalized fluorescence signal”.
